The source made the active and inactive calls. The rule behind the calls is not given here.
Experiments:
HT-29 [1] = experiment: Cytotoxicity against human HT-29 cells assessed as decrease in cell viability incubated for 48 hrs by SRB assay; format: functional, cell-based; conditions: HT-29, 48 h
Mus musculus [2] = experiment: In vivo inhibition of NFkappaB activation in athymic BALB/c mouse xenografted with human HT-29 cells assessed as reduction in IL-8 gene expression in tumor at 5 to 15 mg/kg, ip administered every other day and measured after 14 days by qRT-PCR analysis; format: functional, organism-based; conditions: dose 5-15 mg/kg, time 14.0 day
[3] = biological target: T1, Nuclear factor NF-kappa-B complex (Homo sapiens) (UniProt Q00653+P19838+Q04206); experiment: Inhibition of TNF-alpha induced NFkappaB activation in human HCT-116 cells assessed as downregulation of A20 gene expression pretreated for 24 hrs followed by TNFalpha stimulation and measured after 2 hrs by quantitative RT-PCR analysis; format: cell-based; conditions: dose 1-10 µM, time 26.0 hrs
HT-29 [4] = experiment: Induction of apoptosis in human HT-29 cells assessed as early apoptotic cells at 0.25 uM incubated for 24 hrs by Annexin V-FITC/PI staining based flow cytometric analysis (reference value: 5.29 %); format: functional
HCT-116 [5] = experiment: Induction of apoptosis in human HCT-116 cells assessed as necrotic cells at 5 uM incubated for 24 hrs by Annexin V-FITC/PI staining based flow cytometric analysis (reference value: 0.69 %); format: functional
[6] = biological target: T1, Nuclear factor NF-kappa-B complex (Homo sapiens); experiment: Inhibition of TNF-alpha induced NFkappaB activation in human HT-29 cells assessed as inhibition of IkappaBalpha degradation at 1 to 10 uM pretreated for 24 hrs followed by TNFalpha stimulation for 10 mins by Western blot analysis; format: cell-based; conditions: dose 1-10 µM, time 1450.0 min
HCT-116 [7] = experiment: Induction of apoptosis in human HCT-116 cells assessed as early apoptotic cells at 1 uM incubated for 24 hrs by Annexin V-FITC/PI staining based flow cytometric analysis (reference value: 7.22 %); format: functional
HT-29 [8] = experiment: Induction of cell cycle arrest in human HT-29 cells assessed as accumulation of cells at G0/G1 phase at 1 uM by RNase/PI staining based flow cytometry analysis (reference value: 50.73 %); format: functional
[9] = biological target: T1, Nuclear factor NF-kappa-B complex (Homo sapiens); experiment: Inhibition of TNF-alpha induced NFkappaB activation in human HT-29 cells assessed as inhibition of IL-8 production at 2 uM pretreated for 24 hrs followed by TNFalpha stimulation for 4 hrs by ELISA; format: cell-based; conditions: time 28.0 hrs
HCT-116 [10] = experiment: Induction of apoptosis in human HCT-116 cells assessed as early apoptotic cells at 5 uM incubated for 24 hrs by Annexin V-FITC/PI staining based flow cytometric analysis (reference value: 8.06 %); format: functional
HT-29 [11] = experiment: Induction of cell cycle arrest in human HT-29 cells assessed as decrease in CDK2 protein expression upto 10 uM incubated for 24 hrs by Western blot analysis; format: functional, cell-based
HCT-116 [12] = experiment: Antitumor activity against human HCT-116 cells xenografted in athymic nude BALB/c mouse assessed as induction of apoptosis by measuring increase in cleaved caspase 3 expression in tumor at 15 mg/kg, ip administered every other day and measured after 14 days by immunohistochemistry analysis; format: functional, organism-based; conditions: time 14.0 day
HT-29 [13] = experiment: Induction of autophagic flux in human HT-29 cells assessed as increase in LC3I to LC3II conversion preincubated with 3-methyladenine for 1 hr followed by compound addition and measured after 24 hrs by Western blot analysis; format: functional, cell-based
HT-29 [14] = experiment: Induction of apoptosis in human HT-29 cells assessed as viable cells at 0.25 uM incubated for 24 hrs by Annexin V-FITC/PI staining based flow cytometric analysis (reference value: 93 %); format: functional; conditions: read-out: Activity
HCT-116 [15] = experiment: Induction of apoptosis in human HCT-116 cells assessed as viable cells at 1 uM incubated for 24 hrs by Annexin V-FITC/PI staining based flow cytometric analysis (reference value: 88.8%); format: functional; conditions: read-out: Activity
RAW264.7 = experiment: Inhibition of LPS-induced NFkappaB activation in mouse RAW264.7 cells assessed as inhibition of p65 phosphorylation preincubated for 24 hrs followed by LPS stimulation for 3 hrs by Western blot analysis; format: cell-based; conditions: dose 1-10 µM, time 27.0 hrs
HT-29 [16] = experiment: Induction of cell cycle arrest in human HT-29 cells assessed as accumulation of cells at G2/M phase at 1 uM by RNase/PI staining based flow cytometry analysis (reference value: 9.93 %); format: functional
[17] = biological target: T1, Nuclear factor NF-kappa-B complex (Homo sapiens); experiment: Inhibition of TNF-alpha induced NFkappaB activation in human HCT-116 cells assessed as inhibition of p65 nuclear translocation at 10 uM pretreated for 6 hrs followed by TNFalpha stimulation for 15 mins by immunohistochemical analysis; format: cell-based; conditions: time 6.25 hrs
HCT-116 [18] = experiment: Induction of apoptosis in human HCT-116 cells assessed as necrotic cells at 10 uM incubated for 24 hrs by Annexin V-FITC/PI staining based flow cytometric analysis (reference value: 1.1 %); format: functional
HCT-116 [19] = experiment: Induction of apoptosis in human HCT-116 cells assessed as early apoptotic cells at 0.5 uM incubated for 24 hrs by Annexin V-FITC/PI staining based flow cytometric analysis (reference value: 7.22 %); format: functional
HCT-116 [20] = experiment: Induction of cell cycle arrest in human HCT-116 cells assessed as accumulation of cells at S phase at 5 uM by RNase/PI staining based flow cytometry analysis (reference value: 43.77 %); format: functional
[21] = Cmax in Sprague-Dawley rat at 10 mg/kg, ip measured for 240 mins by HPLC-MS/MS analysis; format: ADME, organism-based; parameters: time 240 min, dose 10 mg/kg, route ip; conditions: in vivo
HT-29 [22] = experiment: Induction of apoptosis in human HT-29 cells assessed as late apoptotic cells at 0.5 uM incubated for 24 hrs by Annexin V-FITC/PI staining based flow cytometric analysis (reference value: 1.56 %); format: functional
Mus musculus [23] = experiment: In vivo inhibition of NFkappaB activation in athymic BALB/c mouse xenografted with human HCT-116 cells assessed as reduction in IL-8 gene expression in tumor at 15 mg/kg, ip administered every other day and measured after 14 days by qRT-PCR analysis; format: functional, organism-based; conditions: time 14.0 day
HCT-116 [24] = experiment: Induction of cell cycle arrest in human HCT-116 cells assessed as accumulation of cells at S phase at 10 uM by RNase/PI staining based flow cytometry analysis (reference value: 43.77 %); format: functional
[25] = Toxicity in athymic nude BALB/c mouse xenografted with human HCT-116 cells assessed as pathological changes in liver at 5 to 15 mg/kg, ip administered every other day and measured after 14 days by hematoxylin and eosin staining-based microscopic analysis; format: organism-based; conditions: in vivo, 336 h, dose 5-15 mg/kg, time 14 day
HCT-15 = experiment: Cytotoxicity against human HCT-15 cells assessed as decrease in cell viability incubated for 48 hrs by SRB assay; format: functional, cell-based; conditions: HCT-15, 48 h
HT-29 [26] = experiment: Induction of autophagic cell death in human HT-29 cells at 1 to 10 uM pretreated with chloroquine for 1 hr followed by compound addition and measured after 24 hrs by SRB assay; format: functional, cell-based; conditions: dose 1-10 µM
HT-29 [27] = experiment: Induction of cell cycle arrest in human HT-29 cells assessed as accumulation of cells at S phase at 10 uM by RNase/PI staining based flow cytometry analysis (reference value: 39.34%); format: functional
Mus musculus [28] = experiment: In vivo inhibition of NFkappaB activation in athymic BALB/c mouse xenografted with human HT-29 cells assessed as reduction in E-selectin gene expression in tumor at 5 to 15 mg/kg, ip administered every other day and measured after 14 days by qRT-PCR analysis; format: functional, organism-based; conditions: dose 5-15 mg/kg, time 14.0 day

T1 sequence (P19838 whole entry, looked up): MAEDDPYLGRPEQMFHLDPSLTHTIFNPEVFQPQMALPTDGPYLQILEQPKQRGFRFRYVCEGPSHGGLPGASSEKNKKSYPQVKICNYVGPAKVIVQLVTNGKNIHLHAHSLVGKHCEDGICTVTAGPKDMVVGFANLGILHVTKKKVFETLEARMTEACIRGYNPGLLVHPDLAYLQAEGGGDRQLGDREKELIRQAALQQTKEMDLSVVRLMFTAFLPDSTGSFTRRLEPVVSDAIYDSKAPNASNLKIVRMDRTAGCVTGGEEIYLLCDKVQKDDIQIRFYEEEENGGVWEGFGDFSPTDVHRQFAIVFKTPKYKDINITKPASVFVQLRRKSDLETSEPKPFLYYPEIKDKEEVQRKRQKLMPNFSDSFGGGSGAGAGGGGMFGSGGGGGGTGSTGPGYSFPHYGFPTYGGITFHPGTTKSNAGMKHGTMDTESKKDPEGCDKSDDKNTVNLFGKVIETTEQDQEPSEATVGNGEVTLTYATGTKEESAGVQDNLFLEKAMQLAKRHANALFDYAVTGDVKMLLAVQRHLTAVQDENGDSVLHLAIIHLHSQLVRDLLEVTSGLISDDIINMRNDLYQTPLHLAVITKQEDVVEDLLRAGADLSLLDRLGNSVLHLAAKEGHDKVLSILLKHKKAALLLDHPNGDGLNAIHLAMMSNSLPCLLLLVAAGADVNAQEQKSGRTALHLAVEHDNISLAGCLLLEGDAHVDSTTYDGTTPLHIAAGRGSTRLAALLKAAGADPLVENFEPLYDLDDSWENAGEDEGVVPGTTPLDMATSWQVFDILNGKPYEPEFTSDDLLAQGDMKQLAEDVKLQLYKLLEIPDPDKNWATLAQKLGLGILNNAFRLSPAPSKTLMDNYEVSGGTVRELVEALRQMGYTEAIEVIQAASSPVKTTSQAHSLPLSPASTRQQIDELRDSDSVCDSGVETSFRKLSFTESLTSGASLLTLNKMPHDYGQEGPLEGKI
T1 sequence (Q00653 whole entry, looked up): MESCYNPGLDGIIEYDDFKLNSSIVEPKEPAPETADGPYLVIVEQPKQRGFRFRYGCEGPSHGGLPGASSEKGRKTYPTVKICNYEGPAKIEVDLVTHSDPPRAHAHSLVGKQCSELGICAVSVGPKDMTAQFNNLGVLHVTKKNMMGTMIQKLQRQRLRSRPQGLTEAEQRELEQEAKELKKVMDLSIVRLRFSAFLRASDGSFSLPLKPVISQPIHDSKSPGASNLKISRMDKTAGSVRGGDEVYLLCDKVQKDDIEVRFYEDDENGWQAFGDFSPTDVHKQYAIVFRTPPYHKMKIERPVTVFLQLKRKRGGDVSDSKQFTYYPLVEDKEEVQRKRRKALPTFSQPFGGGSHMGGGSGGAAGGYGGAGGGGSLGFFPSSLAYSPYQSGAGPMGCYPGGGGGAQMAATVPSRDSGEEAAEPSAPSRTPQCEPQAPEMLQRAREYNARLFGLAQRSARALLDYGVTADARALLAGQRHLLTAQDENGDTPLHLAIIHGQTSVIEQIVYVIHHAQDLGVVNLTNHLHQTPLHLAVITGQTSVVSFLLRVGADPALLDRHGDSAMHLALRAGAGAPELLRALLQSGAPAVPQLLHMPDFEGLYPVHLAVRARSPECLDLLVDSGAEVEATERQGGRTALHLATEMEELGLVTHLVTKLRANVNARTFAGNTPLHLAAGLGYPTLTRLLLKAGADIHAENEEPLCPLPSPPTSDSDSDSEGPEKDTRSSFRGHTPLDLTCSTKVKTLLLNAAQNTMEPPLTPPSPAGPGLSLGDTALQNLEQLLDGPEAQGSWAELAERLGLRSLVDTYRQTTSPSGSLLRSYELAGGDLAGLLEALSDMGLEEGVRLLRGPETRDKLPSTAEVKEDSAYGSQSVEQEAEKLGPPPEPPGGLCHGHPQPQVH
T1 sequence (Q04206 whole entry, looked up): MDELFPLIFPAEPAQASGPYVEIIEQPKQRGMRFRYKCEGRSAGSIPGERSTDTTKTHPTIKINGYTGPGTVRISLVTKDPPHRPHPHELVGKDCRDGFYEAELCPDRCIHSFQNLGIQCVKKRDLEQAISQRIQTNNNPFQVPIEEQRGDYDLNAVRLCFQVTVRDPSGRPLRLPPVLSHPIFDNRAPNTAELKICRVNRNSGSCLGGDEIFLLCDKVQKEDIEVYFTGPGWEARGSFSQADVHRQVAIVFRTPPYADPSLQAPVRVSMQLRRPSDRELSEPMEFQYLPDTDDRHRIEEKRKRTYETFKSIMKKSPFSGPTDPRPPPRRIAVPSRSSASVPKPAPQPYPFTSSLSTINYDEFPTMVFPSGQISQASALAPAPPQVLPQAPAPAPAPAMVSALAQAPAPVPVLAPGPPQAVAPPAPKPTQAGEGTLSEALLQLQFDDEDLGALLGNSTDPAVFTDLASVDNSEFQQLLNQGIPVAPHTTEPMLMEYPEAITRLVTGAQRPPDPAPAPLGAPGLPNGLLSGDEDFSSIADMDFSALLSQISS

In the case of C[C@@H]1CC[C@H]2[C@H](C(=O)c3c(O)c([C@@]4(O)CC[C@@H](O)[C@H]5O[C@H]54)cn(O)c3=O)[C@H](C)C=C[C@@H]2C1, the IC50 (HT-29 [1]) is reported as 570 nM, the inhibition (Mus musculus [2]) is reported as “Active” and the inhibition [3] is reported as “Dose-Dependent Effect”. The Activity (HT-29 [4]) was 12.6%, the Activity (HCT-116 [5]) was 0.52% and the inhibition [6] was “Active”. The Activity (HCT-116 [7]) was 18.6%, the Activity (HT-29 [8]) was 69.17% and the inhibition [9] was “Active”. For the same compound, the Activity (HCT-116 [10]) was 5.47%, the Activity (HT-29 [11]) was “Active” and the Activity (HCT-116 [12]) was “Active”. The Activity (HT-29 [13]) was “Active”, the viability at 0.25 µM (HT-29 [14]) was 85.9% and the viability at 1 µM (HCT-116 [15]) was 32%. For the same compound, the inhibition (RAW264.7) was “Dose-Dependent Effect”, the Activity (HT-29 [16]) was 7.08% and the inhibition [17] was “Active”. For the same compound, the Activity (HCT-116 [18]) was 1.56%, the Activity (HCT-116 [19]) was 13.2% and the Activity (HCT-116 [20]) was 40.03%. The Cmax [21] was 4590 ng/mL, the Activity (HT-29 [22]) was 6.72% and the inhibition (Mus musculus [23]) was “Active”. The Activity (HCT-116 [24]) was 39.08%, the Activity [25] was “Non-Toxic” and the IC50 (HCT-15) was 570 nM. The Activity (HT-29 [26]) was “inactive”, the Activity (HT-29 [27]) was 26.65% and the inhibition (Mus musculus [28]) was “Active”.
